Laboratory results as given in publication PMC4466095 (Bioorganic & medicinal chemistry, 2014).

What was measured:
Format in all cases: cell-based
[1] = system: mouse neutrophils; assay: Ca2+ mobilization in mouse neutrophils; details: Neutrophil, read-out: EC50, Ca2+ mobilization, Mouse PMN
[2] = biological target: T1, FPR2 (Homo sapiens, UniProt P25090); assay: Ca2+ mobilization in FPR2-transfected HL-60 cells
T1 sequence (P25090 1-351): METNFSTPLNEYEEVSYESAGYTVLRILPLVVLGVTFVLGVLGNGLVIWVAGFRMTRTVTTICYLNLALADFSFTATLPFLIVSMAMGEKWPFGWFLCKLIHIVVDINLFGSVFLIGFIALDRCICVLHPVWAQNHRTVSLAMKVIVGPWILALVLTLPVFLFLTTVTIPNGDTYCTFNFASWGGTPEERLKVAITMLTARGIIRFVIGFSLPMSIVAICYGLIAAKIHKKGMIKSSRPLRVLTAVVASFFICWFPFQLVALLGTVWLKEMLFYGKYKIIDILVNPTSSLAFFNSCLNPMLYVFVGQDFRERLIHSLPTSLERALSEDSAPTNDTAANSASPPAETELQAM

[3] = system: human neutrophils; assay: Ca2+ mobilization in human neutrophils
[4] = biological target: T2, FPR1 (Homo sapiens, UniProt P21462); assay: Ca2+ mobilization in FPR1-transfected HL-60 cells
T2 sequence (P21462 1-350): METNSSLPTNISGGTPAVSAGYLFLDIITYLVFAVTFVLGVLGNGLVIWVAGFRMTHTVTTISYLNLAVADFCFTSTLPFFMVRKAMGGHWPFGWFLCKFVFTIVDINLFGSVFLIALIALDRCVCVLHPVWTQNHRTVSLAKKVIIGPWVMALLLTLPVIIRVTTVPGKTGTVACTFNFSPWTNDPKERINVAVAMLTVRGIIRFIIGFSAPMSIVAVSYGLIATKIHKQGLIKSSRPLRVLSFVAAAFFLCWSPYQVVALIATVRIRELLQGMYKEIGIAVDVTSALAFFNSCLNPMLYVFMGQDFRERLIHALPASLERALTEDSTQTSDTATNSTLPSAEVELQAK

In the case of `COc1ccc(NC(=O)N[C@H](Cc2c[nH]c3ccccc23)C(=O)NCC2(c3ccc(OC)cn3)CCCCC2)cc1` [(R)-9a, (R)-3-(1H-Indol-3-yl)-2-[3-(4-methoxyphenyl)ureido]-N-[[1-(5-methoxy-2-pyridinyl)cyclohexyl]methyl]propanamide], the EC50 [1] is reported as 4900 ± 1400 nM.
For `COc1ccc(NC(=O)N[C@H](Cc2c[nH]c3ccccc23)C(=O)NCC2(c3ccnc(F)c3)CCCCC2)cc1` [(R)-9b], the “activation of FPR2 in FPR2-HL60 cells and in human neutrophils (in words)” value (“activation of FPR2” for short) [2] was “inactive”, the “Ca2+ mobilization in human neutrophils (in words)” value [3] was “not able to induce Ca^2+ mobilization” and the EC50 [1] was 2300 ± 730 nM.
With `COc1ccc(NC(=O)N[C@H](Cc2c[nH]c3ccccc23)C(=O)NCC2(c3ccccc3)CCCCC2)cc1` [(R)-9c, (R)-3-(1H-Indol-3-yl)-2-[3-(4-methoxyphenyl)ureido]-N-[(1-phenylcyclohexyl)methyl]propanamide] the “Ca2+ mobilization in FPR1-HL60 cells (in words)” value [4] was “unable to stimulate Ca^2+ mobilization”, the “Ca2+ mobilization in human neutrophils (in words)” value [3] was “only in the presence of probenecid” and the EC50 [1] was 3800 ± 1300 nM.
With `COc1ccc(NC(=O)N[C@H](Cc2c[nH]c3ccccc23)C(=O)NCC2(c3cccnc3)CCCCC2)cc1` [(R)-9d, (R)-3-(1H-Indol-3-yl)-2-[3-(4-methoxyphenyl)ureido]-N-[[1-(3-pyridinyl)cyclohexyl]methyl]propanamide] the “Ca2+ mobilization in human neutrophils (in words)” value [3] was “not able to induce Ca^2+ mobilization” and the EC50 [1] was 2100 ± 580 nM.
`COc1ccc(NC(=O)N[C@H](Cc2c[nH]c3ccccc23)C(=O)NCC2(c3ccccn3)CCCCC2)cc1` [(R)-9e, (R)-3-(1H-Indol-3-yl)-2-[3-(4-methoxyphenyl)ureido]-N-[[1-(2-pyridinyl)cyclohexyl]methyl]propanamide] was tested, and the EC50 [1] was 1000 ± 270 nM.
For `COc1ccc(NC(=O)N[C@H](Cc2c[nH]c3ccccc23)C(=O)NCC2(c3ccc(F)cc3)CCCCC2)cc1` [(R)-9f, (R)-N-[[1-(4-Fluorophenyl)cyclohexyl]methyl]-3-(1H-indol-3-yl)-2-[3-(4-methoxyphenyl)ureido]propanamide], the “activation of FPR2” value [2] was “inactive”, the “Ca2+ mobilization in human neutrophils (in words)” value [3] was “not able to induce Ca^2+ mobilization” and the EC50 [1] was 2500 ± 420 nM.
`COc1ccc(NC(=O)N[C@@H](Cc2c[nH]c3ccccc23)C(=O)NCC2(c3ccc(OC)cn3)CCCCC2)cc1` [(S)-9a, (S )-3-(1H-indol-3-yl)-2-[3-(4-methoxyphenyl)ureido]-N -[[1-(5-methoxy-2-pyridinyl)cyclohexyl]methyl]propanamide] was tested, and the “Ca2+ mobilization in FPR1-HL60 cells (in words)” value [4] was “stimulated Ca^2+ mobilization”, the “difference in potency between enantiomers in activation of human neutrophils” value ([3]; (S)-9a vs (R)-9a) was greater than 14 fold and the “Efficacy, Ca2+ mobilization, Human PMN (w/o probenecid)” value ([3]; without probenecid, normalized to 5 nM fMLF = 100%) was 100%. It also gave an EC50 [1] of 240 ± 70 nM.
With `COc1ccc(NC(=O)N[C@@H](Cc2c[nH]c3ccccc23)C(=O)NCC2(c3ccnc(F)c3)CCCCC2)cc1` [(S)-9b] the “Ca2+ mobilization in FPR1-HL60 cells (in words)” value [4] was “unable to stimulate Ca^2+ mobilization”, the “activation of FPR2” value [2] was “active” and the EC50 [1] was 1700 ± 440 nM.
With `COc1ccc(NC(=O)N[C@@H](Cc2c[nH]c3ccccc23)C(=O)NCC2(c3ccccc3)CCCCC2)cc1` [(S)-9c, (S)-3-(1H-Indol-3-yl)-2-[3-(4-methoxyphenyl)ureido]-N-[(1-phenylcyclohexyl)methyl]propanamide] the “Ca2+ mobilization in human neutrophils (in words)” value [3] was “not able to induce Ca^2+ mobilization” and the EC50 [1] was 2500 ± 610 nM.
With `COc1ccc(NC(=O)N[C@@H](Cc2c[nH]c3ccccc23)C(=O)NCC2(c3cccnc3)CCCCC2)cc1` [(S)-9d, (S)-3-(1H-Indol-3-yl)-2-[3-(4-methoxyphenyl)ureido]-N-[[1-(3-pyridinyl)cyclohexyl]methyl]propanamide] the “Ca2+ mobilization in FPR1-HL60 cells (in words)” value [4] was “unable to stimulate Ca^2+ mobilization”, the “activation of FPR2” value [2] was “able to activate FPR2” and the EC50 [1] was 3900 ± 1500 nM.
`COc1ccc(NC(=O)N[C@@H](Cc2c[nH]c3ccccc23)C(=O)NCC2(c3ccccn3)CCCCC2)cc1` [(S)-9e, (S)-3-(1H-Indol-3-yl)-2-[3-(4-methoxyphenyl)ureido]-N-[[1-(2-pyridinyl)cyclohexyl]methyl]propanamide] was tested, and the “Ca2+ mobilization in FPR1-HL60 cells (in words)” value [4] was “stimulated Ca^2+ mobilization” and the EC50 [1] was 2800 ± 640 nM.
For `COc1ccc(NC(=O)N[C@@H](Cc2c[nH]c3ccccc23)C(=O)NCC2(c3ccc(F)cc3)CCCCC2)cc1` [(S)-9f, (S)-N-[[1-(4-Fluorophenyl)cyclohexyl]methyl]-3-(1H-indol-3-yl)-2-[3-(4-methoxyphenyl)ureido]propanamide], the “Ca2+ mobilization in FPR1-HL60 cells (in words)” value [4] was “unable to stimulate Ca^2+ mobilization”, the “activation of FPR2” value [2] was “active” and the “Ca2+ mobilization in human neutrophils (in words)” value [3] was “only in the presence of probenecid”. For the same compound, the EC50 [1] was 2300 ± 350 nM.
